Key:
liver slices [1] = details: 20 mg loading dose; all trials; in presence of HL 100; FIG. 5
liver slices [2] = tested on: liver slices
[3] = 2 mg lidocaine dose, continuous and intermittent (1:3) perfusion, in presence of HL 100, FIG. 3A

Row | SMILES | time of maximal ammonia clearance (liver slices [1]) | lidocaine levels within 30 minutes (liver slices [2]; 2 mg dose, 6 hour trials and continuous perfusion 24 hour trial, exposed to HL 100, FIG. 3B) | level of lidocaine at 120 minutes (liver slices [2]; [3]) | level of lidocaine at approximately 30 minutes after lidocaine loading (liver slices [2]; [3])
1 | N [ammonia] | approximately 30 minutes |  |  | 
2 | CCN(CC)CC(=O)Nc1c(C)cccc1C [lidocaine] |  | approximately 0.8 μg | approximately 0.5 :g | approximately 0.9 μg

Source: patent publication US7829325B2, “Drug testing with bio-artificial organ slices including for example those derived from liver” (HepaHope, Inc., priority 2003, dated 2010)
